The values that follow are results of earlier work, collected in patent US20230270635A1, “METHODS AND COMPOSITIONS FOR COSMETIC APPLICATIONS” (GLO Pharma, Inc., priority 2021, published 2023).

For the data set the following is noted: non-ionic surfactants with HLB of 10 or less, Table 1.

For Sorbitan monopalmitate, the HLB result is on record as “HLB = 6.7”.

On to `CCCCCCCCCCCCCCCCCCOCCOCCO` [Steareth-2, 2-(2-octadecoxyethoxy)ethanol], for which the HLB entry is listed as “HLB = 4.9”. As to Sorbitan monolaurate, the HLB result is on record as “HLB = 8.6”. As for “Polyoxyethylene (4) dilaurate [PEG-4 dilaurate]”, the HLB result is reported as “HLB = 6”. Consider “Polyoxyethylene (3) Oleyl Ether [Oleth-3]”, for which the HLB result was “HLB = 6.6”. Take Polysorbate 61: the HLB entry is given as “HLB = 9.6”.

Take Sorbitan sesquioleate: the HLB result is given as “HLB = 3.7”. As for PEG-30 dipolyhydroxy-stearate, the HLB result is “HLB = 5.5”. In the case of “Polyoxyethylene (5) Oleyl Ether [Oleth-5]”, the HLB result is reported as “HLB = 9”. For Sorbitan monooleate, the HLB result was “HLB = 4.3”.

For the compound Sorbitan monostearate, the HLB entry is recorded as “HLB = 4.7”.

For `CCCCCCCCCCCC(=O)OCC(O)CO` (stereo not shown) [Glyceryl laurate], the HLB result is on record as “HLB = 5.2”. Regarding Sorbitan trioleate, the HLB entry was “HLB = 1.8”. Take `CCCCCCCCCCCCCCCCCC(=O)OCCOC(=O)CCCCCCCCCCCCCCCCC` [Glycol distearate]: the HLB entry was “HLB = 1”. Consider “Polyoxyethylene (2) Oleyl Ether [Oleth-2]”, for which the HLB entry is listed as “HLB = 4.9”. In the case of “Polyoxyethylene (8) dilaurate [PEG-8 dilaurate]”, the HLB entry was “HLB = 10”. On to `CCCCCCCCCCCCCCCCCC(=O)OCC(O)CO` (stereo not shown) [Glyceryl stearate], for which the HLB entry is recorded as “HLB = 3.8”. For `CCCCCCCCCCCCCCCCCC(=O)OCCO` [Glycol stearate], the HLB entry is recorded as “HLB = 2.9”. Consider PEG-8 distearate, for which the HLB entry was “HLB = 8”.

In the case of `CCCCCCCC(=O)OCC(O)CO` (stereo not shown) [Glyceryl caprylate], the HLB result was “HLB = 5-6”. With PEG-8 dioleate, the HLB entry is recorded as “HLB = 7.2”. For Glyceryl stearate SE, the HLB result is on record as “HLB = 5.8”. With Propylene glycol monolaurate, the HLB entry was “HLB=3”.

`CCCCCCCCCCCCCCCCOCCOCCO` [Ceteth-2, Diethylene glycol hexadecyl ether]: the HLB result was “HLB = 5.3”.

Consider Sorbitan Isostearate, for which the HLB result was “HLB = 4.7”.
